Test results reported in patent publication US11242343B2 (Incyte Corporation, priority 2016, dated 2022).

Biological target: HPK1 (Homo sapiens, UniProt Q92918)
Experiment: HPK1 Kinase Binding Assay
Details: LanthaScreen tracer 222 binding, one hour incubation at 25° C.
Experimental: Example A. HPK1 Kinase Binding Assay
A stock solution of 1 mM test compound was prepared in DMSO. The compound plate was prepared by 3-fold and 11-point serial dilutions. 0.1 μL of the compound in DMSO was transferred from the compound plate to the white 384 well polystyrene plates. The assay buffer contained 50 mM HEPES, pH 7.5, 0.01% Tween-20, 5 mM MgCl2, 0.01% BSA, and 5 mM DTT. 5 μl of 4 nM active HPK1 (SignalChem M23-11G) prepared in the buffer was added to the plate. The enzyme concentration given was based on the given stock concentration reported by the vender. 5 μl of 18 nM tracer 222 (ThermoFisher PV6121) and 4 nM LanthaScreen Eu-Anti GST antibody (ThermoFisher PV5595) were added. After one hour incubation at 25° C., the plates were read on a PHERAstar FS plate reader (BMG Labtech). Ki values were determined.

Sequence of HPK1 (Q92918 whole entry, looked up): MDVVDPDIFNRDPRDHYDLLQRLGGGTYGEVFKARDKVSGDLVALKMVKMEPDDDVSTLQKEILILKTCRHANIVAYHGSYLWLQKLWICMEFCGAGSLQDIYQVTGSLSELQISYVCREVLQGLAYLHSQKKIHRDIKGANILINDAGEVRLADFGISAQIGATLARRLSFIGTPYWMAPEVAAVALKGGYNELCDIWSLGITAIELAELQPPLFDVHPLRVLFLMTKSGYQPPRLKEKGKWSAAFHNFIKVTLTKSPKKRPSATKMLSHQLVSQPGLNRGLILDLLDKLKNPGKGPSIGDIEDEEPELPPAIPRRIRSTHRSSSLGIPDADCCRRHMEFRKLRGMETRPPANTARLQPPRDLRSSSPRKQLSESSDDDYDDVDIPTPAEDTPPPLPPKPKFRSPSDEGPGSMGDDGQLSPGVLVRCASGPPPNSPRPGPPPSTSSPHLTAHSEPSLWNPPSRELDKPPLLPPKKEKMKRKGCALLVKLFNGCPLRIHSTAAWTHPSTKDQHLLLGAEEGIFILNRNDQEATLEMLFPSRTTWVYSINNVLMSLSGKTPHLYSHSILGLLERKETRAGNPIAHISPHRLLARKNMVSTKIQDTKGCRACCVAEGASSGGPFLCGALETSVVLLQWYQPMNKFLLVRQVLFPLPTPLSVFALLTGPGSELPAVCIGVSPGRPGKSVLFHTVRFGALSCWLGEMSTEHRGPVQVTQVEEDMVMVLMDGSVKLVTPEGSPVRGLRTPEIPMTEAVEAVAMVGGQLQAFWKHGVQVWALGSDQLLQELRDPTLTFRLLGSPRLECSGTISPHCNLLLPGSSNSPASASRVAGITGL

Ki, ≤ 100 nM:
CNCc1cc(F)c(-c2ccc3[nH]nc(-c4ccc(N5CCN(C)CC5)cc4)c3n2)c(F)c1 [Example 61, 1-(3,5-Difluoro-4-(3-(4-(4-methylpiperazin-1-yl)phenyl)-1H-pyrazolo[4,3-b]pyridin-5-yl)phenyl)-N-methylmethanamine]
Cc1cccc(F)c1-c1nc2c(-c3ccc(N4CCN(C)CC4)nc3)n[nH]c2cc1C#N [Example 62]
Cc1cccc(F)c1-c1nc2c(-c3cnc(N4CCOCC4)nc3)n[nH]c2cc1C#N [Example 63, 5-(2-Fluoro-6-methylphenyl)-3-(2-morpholinopyrimidin-5-yl)-1H-pyrazolo[4,3-b]pyridine-6-carbonitrile]
CCN1CCN(c2ccc(-c3n[nH]c4cc(C#N)c(-c5c(C)cccc5F)nc34)cc2)CC1 [Example 64]
CNC(=O)c1ccc(-c2n[nH]c3cc(C#N)c(-c4c(C)cccc4F)nc23)cn1 [Example 65, 5-(6-Cyano-5-(2-fluoro-6-methylphenyl)-1H-pyrazolo[4,3-b]pyridin-3-yl)-N-methylpicolinamide]
CNCc1cc(C)c(-c2nc3c(-c4cnn(C)c4)n[nH]c3cc2C#N)c(F)c1 [Example 66, 5-(2-Fluoro-6-methyl-4-((methylamino)methyl)phenyl)-3-(1-methyl-1H-pyrazol-4-yl)-1H-pyrazolo[4,3-b]pyridine-6-carbonitrile]
CNCc1cc(C)c(-c2nc3c(-c4ccc(N5CCN(C)CC5)nc4)n[nH]c3cc2C#N)c(F)c1 [Example 67, 5-(2-Fluoro-6-methyl-4-((methylamino)methyl)phenyl)-3-(6-(4-methylpiperazin-1-yl)pyridin-3-yl)-1H-pyrazolo[4,3-b]pyridine-6-carbonitrile]
CNCc1cc(C)c(-c2nc3c(-c4cnc(N5CCN(C)CC5)nc4)n[nH]c3cc2C#N)c(F)c1 [Example 68, 5-(2-Fluoro-6-methyl-4-((methylamino)methyl)phenyl)-3-(2-(4-methylpiperazin-1-yl)pyrimidin-5-yl)-1H-pyrazolo[4,3-b]pyridine-6-carbonitrile]
CCN1CCN(c2ccc(-c3n[nH]c4cc(C#N)c(-c5c(C)cc(CNC)cc5F)nc34)cc2)CC1 [Example 69, 3-(4-(4-Ethylpiperazin-1-yl)phenyl)-5-(2-fluoro-6-methyl-4-((methylamino)methyl)phenyl)-1H-pyrazolo[4,3-b]pyridine-6-carbonitrile]
CNCc1cc(C)c(-c2nc3c(-c4cnc(N5CCOCC5)nc4)n[nH]c3cc2C#N)c(F)c1 [Example 70, 5-(2-Fluoro-6-methyl-4-((methylamino)methyl)phenyl)-3-(2-morpholinopyrimidin-5-yl)-1H-pyrazolo[4,3-b]pyridine-6-carbonitrile]
CNCc1cc(C)c(-c2nc3c(-c4ccc(C(C)(C)O)nc4)n[nH]c3cc2C#N)c(F)c1 [Example 71, 5-(2-Fluoro-6-methyl-4-((methylamino)methyl)phenyl)-3-(6-(2-hydroxypropan-2-yl)pyridin-3-yl)-1H-pyrazolo[4,3-b]pyridine-6-carbonitrile]
CNCc1cc(C)c(-c2nc3c(-c4ccc(C(=O)NC)nc4)n[nH]c3cc2C#N)c(F)c1 [Example 72, 5-(6-Cyano-5-(2-fluoro-6-methyl-4-((methylamino)methyl)phenyl)-1H-pyrazolo[4,3-b]pyridin-3-yl)-N-methylpicolinamide]
Cn1cc(-c2n[nH]c3cc(C#N)c(-c4c(F)ccc5c4CCNC5)nc23)cn1 [Example 74]
CCN1CCN(c2ccc(-c3n[nH]c4cc(C#N)c(-c5c(F)ccc6c5CCNC6)nc34)cc2)CC1 [Example 75]
CN1CCN(c2ccc(-c3n[nH]c4cc(C#N)c(-c5c(F)ccc6c5CCNC6)nc34)cn2)CC1 [Example 76]
Cc1cccc(F)c1-c1nc2c(-c3cnn(C)c3)n[nH]c2cc1C#N [Example 77]
